Assay results reported in the supplement of paper PMC11061612.

Assays:
Experiment in all cases: Bliss excess, mean over the matrix (fraction); higher = more synergy
[1] = system: A3-KAW (B-Cell Non-Hodgkin's Lymphoma)
In short: (§1)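 After 24 hours at 37°C and 5% CO2 in 1536-well plates, cells in DMEM/F12 or RPMI plus 10% FBS received two-drug dose matrices for 72 hours. Viability came from CellTiter-Glo 2.0 luminescence and was scaled as inhibition, anchored at 0 by vehicle wells and at 1 by blank wells. Combination Emax is taken as the second-highest inhibition in the matrix, and Bliss excess as the observed combination effect less EA + EB − EA·EB, with EA and EB the single-agent effects.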

FU97 (Gastric Carcinoma) = system: FU97 (Gastric Carcinoma)
In short: as §1

[2] = system: JSC-1 (B-Cell Non-Hodgkin's Lymphoma)
In short: as §1

[3] = system: KARPAS-422 (B-Cell Non-Hodgkin's Lymphoma)
In short: as §1

NCI-H2591 (Mesothelioma) = system: NCI-H2591 (Mesothelioma)
In short: as §1

U-2-OS (Osteosarcoma) = system: U-2-OS (Osteosarcoma)
In short: as §1

**Q.** Which results are given for `Cc1c2c(nn1C)CSCc1cc(n(C)n1)CSc1cc(c3ccccc3c1)OCCCc1c(C(=O)O)n(C)c3c-2c(Cl)ccc13` [AZD5991] + Cc1cc2ncnn2cc1Nc1ncc2c(n1)n(C1CCOCC1)c(=O)n2C [AZD7648] (first compound max 1 µM, 7x7, partner max 10 µM)?
**A.** Bliss excess [1]: -0.0101; Bliss excess (FU97 (Gastric Carcinoma)): -0.044; Bliss excess [2]: -0.0499; Bliss excess [3]: -0.0008; Bliss excess (NCI-H2591 (Mesothelioma)): -0.0106; Bliss excess (U-2-OS (Osteosarcoma)): -0.0318

**Q.** How did the Bliss excess [1] turn out when `CN(CCO)CC[C@H](CSc1ccccc1)Nc1ccc(S(=O)(=O)NC(=O)c2ccc(N3CCC([C@@H](O)c4ccccc4-c4ccc(Cl)cc4)CC3)cc2)cc1S(=O)(=O)C(F)(F)F` [AZD4320] + C=CCn1c(=O)c2cnc(Nc3ccc(N4CCN(C)CC4)cc3)nc2n1-c1cccc(C(C)(C)O)n1 [AZD1775] (first compound max 1 µM, partner max 1 µM) was run?
**A.** 0.0279

**Q.** What about the Bliss excess (FU97 (Gastric Carcinoma)) of the same compound?
**A.** -0.0315

**Q.** What about the Bliss excess [2] of the same compound?
**A.** -0.0077

**Q.** And the Bliss excess [3]?
**A.** 0.0569

**Q.** What about the Bliss excess (NCI-H2591 (Mesothelioma)) of the same compound?
**A.** -0.0701

**Q.** What about the Bliss excess (U-2-OS (Osteosarcoma)) of the same compound?
**A.** -0.0059

**Q.** Which Bliss excess [1] does the source give for `CS(=O)(=O)CCNCc1ccc(-c2ccc3ncnc(Nc4ccc(OCc5cccc(F)c5)c(Cl)c4)c3c2)o1` [Lapatinib] + C[C@@H](Oc1cc(-c2cnn(C3CCNCC3)c2)cnc1N)c1c(Cl)ccc(F)c1Cl [Crizotinib] (first compound max 10 µM, 7x7, partner max 10 µM) here?
**A.** 0.0316

**Q.** What about the Bliss excess (FU97 (Gastric Carcinoma)) of the same compound?
**A.** -0.0144

**Q.** And the Bliss excess [2]?
**A.** -0.0008

**Q.** What about the Bliss excess [3] of the same compound?
**A.** -0.0649

**Q.** What about the Bliss excess (NCI-H2591 (Mesothelioma)) of the same compound?
**A.** -0.0493

**Q.** What about the Bliss excess (U-2-OS (Osteosarcoma)) of the same compound?
**A.** -0.0263

**Q.** How did the Bliss excess [1] turn out when `Cc1c2c(nn1C)CSCc1cc(n(C)n1)CSc1cc(c3ccccc3c1)OCCCc1c(C(=O)O)n(C)c3c-2c(Cl)ccc13` [AZD5991] + C[C@@H]1COCCN1C2=NC(=NC(=C2)C3(CC3)[S@](=N)(=O)C)C4=C5C=CNC5=NC=C4 [AZD6738] (first compound max 1 µM, 7x7, partner max 10 µM) was run?
**A.** 0.0161

**Q.** What about the Bliss excess (FU97 (Gastric Carcinoma)) of the same compound?
**A.** -0.0064

**Q.** What about the Bliss excess [2] of the same compound?
**A.** 0.018

**Q.** What about the Bliss excess [3] of the same compound?
**A.** -0.0209

**Q.** What about the Bliss excess (NCI-H2591 (Mesothelioma)) of the same compound?
**A.** 0.023

**Q.** What about the Bliss excess (U-2-OS (Osteosarcoma)) of the same compound?
**A.** 0.0276

**Q.** How did the Bliss excess [1] turn out when `COc1cc2c(cc1OCCCCCOc1cc3c(cc1OC)C(=O)N1C=C(C)C[C@H]1C=N3)N=C[C@@H]1CC(C)=CN1C2=O` [SG3199] + O=C(c1cc(Cc2n[nH]c(=O)c3ccccc23)ccc1F)N1CCN(C(=O)C2CC2)CC1 [Olaparib] (first compound max 0.001 µM, 7x7, partner max 10 µM) was run?
**A.** -0.0286

**Q.** What about the Bliss excess (FU97 (Gastric Carcinoma)) of the same compound?
**A.** -0.0513

**Q.** What about the Bliss excess [2] of the same compound?
**A.** -0.0344

**Q.** And the Bliss excess [3]?
**A.** -0.0044

**Q.** What about the Bliss excess (NCI-H2591 (Mesothelioma)) of the same compound?
**A.** -0.0414

**Q.** What about the Bliss excess (U-2-OS (Osteosarcoma)) of the same compound?
**A.** -0.0203

**Q.** Which results are given for `C[C@@H](c1ccc2nccn2c1)n1nnc2ncc(-c3cnn(C)c3)nc21` [Savolitinib] + CN(CC[C@H](CSC1=CC=CC=C1)NC2=C(C=C(C=C2)S(=O)(=O)NC(=O)C3=CC=C(C=C3)N4CCC(CC4)[C@H](C5=CC=CC=C5C6=CC=C(C=C6)Cl)O)S(=O)(=O)C(F)(F)F)CCO [AZD4320] (first compound max 1 µM, 7x7, partner max 1 µM)?
**A.** Bliss excess [1]: -0.0158; Bliss excess [2]: -0.0221; Bliss excess (NCI-H2591 (Mesothelioma)): -0.0714; Bliss excess (U-2-OS (Osteosarcoma)): -0.0128

**Q.** Which Bliss excess [1] does the source give for `CN(C)CCCOc1ccc(-c2ccc3ncc4c(c3c2)n(C2CCOCC2)c(=O)n4C)cn1` [AZD0156] + C[C@@H]1COCCN1C2=NC(=NC(=C2)C3(CC3)[S@](=N)(=O)C)C4=C5C=CNC5=NC=C4 [AZD6738] (first compound max 1 µM, 7x7, partner max 10 µM) here?
**A.** 0.0876

**Q.** And the Bliss excess (FU97 (Gastric Carcinoma))?
**A.** -0.0353

**Q.** And the Bliss excess [2]?
**A.** 0.0233

**Q.** What about the Bliss excess [3] of the same compound?
**A.** -0.0444

**Q.** What about the Bliss excess (NCI-H2591 (Mesothelioma)) of the same compound?
**A.** -0.0461

**Q.** What about the Bliss excess (U-2-OS (Osteosarcoma)) of the same compound?
**A.** 0.0445

**Q.** Which Bliss excess [1] does the source give for `Cc1c2c(nn1C)CSCc1cc(n(C)n1)CSc1cc(c3ccccc3c1)OCCCc1c(C(=O)O)n(C)c3c-2c(Cl)ccc13` [AZD5991] + CCN(CCO)CCCOc1ccc2c(Nc3cc(CC(=O)Nc4cccc(F)c4)[nH]n3)ncnc2c1 [AZD2811] (first compound max 1 µM, 7x7, partner max 1 µM) here?
**A.** 0.0434

**Q.** And the Bliss excess [2]?
**A.** 0.123

**Q.** And the Bliss excess [3]?
**A.** 0.0918

**Q.** And the Bliss excess (NCI-H2591 (Mesothelioma))?
**A.** 0.0208

**Q.** What about the Bliss excess (U-2-OS (Osteosarcoma)) of the same compound?
**A.** 0.0091

**Q.** Which results are given for `NC1(C(=O)N[C@@H](CCO)c2ccc(Cl)cc2)CCN(c2ncnc3[nH]ccc23)CC1` [Capivasertib] + CC(=O)c1c(C)c2cnc(Nc3ccc(N4CCNCC4)cn3)nc2n(C2CCCC2)c1=O [Palbociclib] (first compound max 10 µM, 7x7, partner max 10 µM)?
**A.** Bliss excess [1]: 0.0548; Bliss excess (FU97 (Gastric Carcinoma)): -0.0168; Bliss excess [2]: -0.0107; Bliss excess [3]: -0.012; Bliss excess (NCI-H2591 (Mesothelioma)): -0.0717; Bliss excess (U-2-OS (Osteosarcoma)): 0.0197

**Q.** Which Bliss excess [1] does the source give for `COc1cccc(OCCCN)c1-c1cc(Nc2cnc(C#N)cn2)n[nH]1` [Prexasertib] + C=CCn1c(=O)c2cnc(Nc3ccc(N4CCN(C)CC4)cc3)nc2n1-c1cccc(C(C)(C)O)n1 [AZD1775] (first compound max 1 µM, partner max 1 µM) here?
**A.** 0.0424

**Q.** And the Bliss excess (FU97 (Gastric Carcinoma))?
**A.** 0.0052

**Q.** And the Bliss excess [2]?
**A.** 0.0682

**Q.** And the Bliss excess [3]?
**A.** 0.0841

**Q.** And the Bliss excess (NCI-H2591 (Mesothelioma))?
**A.** 0.0951

**Q.** And the Bliss excess (U-2-OS (Osteosarcoma))?
**A.** 0.0506

**Q.** With `COc1cccc(OCCCN)c1-c1cc(Nc2cnc(C#N)cn2)n[nH]1` [Prexasertib] + CN(C)CCCOc1ccc(-c2ccc3ncc4c(c3c2)n(C2CCOCC2)c(=O)n4C)cn1 [AZD0156] (first compound max 1 µM, 7x7, partner max 1 µM) as the compound, how does the Bliss excess [1] read?
**A.** 0.0134

**Q.** And the Bliss excess (FU97 (Gastric Carcinoma))?
**A.** -0.0321

**Q.** What about the Bliss excess [2] of the same compound?
**A.** -0.0111

**Q.** And the Bliss excess [3]?
**A.** 0.0128

**Q.** And the Bliss excess (NCI-H2591 (Mesothelioma))?
**A.** -0.0141

**Q.** What about the Bliss excess (U-2-OS (Osteosarcoma)) of the same compound?
**A.** 0.0176

**Q.** `Cc1c2c(nn1C)CSCc1cc(n(C)n1)CSc1cc(c3ccccc3c1)OCCCc1c(C(=O)O)n(C)c3c-2c(Cl)ccc13` [AZD5991] + Cn1cnc2c(F)c(Nc3ccc(Br)cc3Cl)c(C(=O)NOCCO)cc21 [Selumetinib] (first compound max 1 µM, 7x7, partner max 3 µM) was tested. Which Bliss excess [1] did it give?
**A.** 0.045

**Q.** What about the Bliss excess (FU97 (Gastric Carcinoma)) of the same compound?
**A.** -0.0609

**Q.** And the Bliss excess [2]?
**A.** 0.027

**Q.** And the Bliss excess [3]?
**A.** -0.0157

**Q.** What about the Bliss excess (NCI-H2591 (Mesothelioma)) of the same compound?
**A.** -0.0127

**Q.** And the Bliss excess (U-2-OS (Osteosarcoma))?
**A.** 0.0109
